Experiments:
CHO-K1 = experiment: XTT cell proliferation assay (phototoxicity), CHO-K1 negative control; format: cell-based, Chinese hamster; settings: CHO-K1 exposed to 800 nM; with light activation
Experimental: All cell lines were […], including the EGFR^+ A431, MDA-MB-231, MDA-MB468 and SiHa cells, and the EGFR^− L540, CHO-K1 and HEK-293T cells. A431, L540, CHO-K1 and HEK-293T cells were cultured in RPMI-1640 medium supplemented with 2 mM L-glutamine, 10% (v/v) fetal bovine serum (FBS) and 100 U/ml penicillin-streptomycin. MDA-MB-231, MDA-MB468 and SiHa cells were cultured in DMEM with 10% (v/v) fetal bovine serum (FBS) and 100 U/ml penicillin-streptomycin. All cells were incubated at 37° C. in a 5% CO2 atmosphere. All media and additives were obtained from Invitrogen, Darmstadt, Germany.
(§1) Control cultures were incubated with 500 μg/ml zeocin instead of the photosensitizer. The cells were then irradiated with 24 J/cm^2 broadband visible/near infrared light using Hydrosun type 505, 7-mm water cuvette and orange filter OG590, spectrum in the range 580-1400 nm (Hydrosun Medizintechnik GmbH, Müllheim, Germany) and incubated for a further 24 h at 37° C. in a 5% CO2 atmosphere.
Cell viability was determined using the XTT cell proliferation kit II (Roche, Mannheim Germany), 24 h after light activation. […] Reduction of XTT to formazan by viable tumor cells was monitored colorimetrically at an absorbance wavelength of 450 nm and a reference wavelength of 630 nm using an ELISA plate reader Elisareader ELx808 (Bio-TEK, Bad Friedrichsahll, Germany).

caspase-3 and caspase-7 = experiment: Apo-ONE Homogeneous Caspase-3/7 Assay; format: cell-based, human; settings: 200 nM; 24 h after light activation; A431, MDA-MB-231, MDA-MB468, SiHa and CHO-K1 cells analyzed
Experimental: as §1
Caspase-3/7 activity in cell lysates was determined using the Apo-ONE Caspase-3/7 assay (Promega, Mannheim, Germany) 24 h after light activation. Briefly, 100 μl of Apo-ONE reagent was added to the cells, and they were incubated for 6 h before fluorescence readings were taken with an ELISA plate reader Elisareader ELx808 (Bio-TEK, Bad Friedrichsahll, Germany) using an excitation wavelength of 485 nm and an emission wavelength of 535 nm. The concentration of ROS was determined by measuring the 485/535 nm fluorescence ratio of H2DCFDA (Invitrogen, Darmstadt, Germany). […] The cells were washed twice with warm PBS containing 2.5% FCS, cultured for 2 h in […] medium and illuminated as described above. Fluorescence readings were taken directly after illumination. A blank probe (cells and medium) reading was used as the background and subtracted from all the sample readings.

A431 cells = experiment: ROS generation (carboxy-H2DCFDA fluorescence) in photosensitized A431 cells; format: cell-based, human; settings: 200 nM
Experimental: Caspase-3/7 activity in cell lysates was determined using the Apo-ONE Caspase-3/7 assay (Promega, Mannheim, Germany) 24 h after light activation. […] The cells were washed twice with warm PBS containing 2.5% FCS, cultured for 2 h in […] medium and illuminated as described above. Fluorescence readings were taken directly after illumination. A blank probe (cells and medium) reading was used as the background and subtracted from all the sample readings.

[1] = system: A431, MDA-MB-231, MDA-MB468 and SiHa cells; experiment: Confocal microscopy binding and internalization, EGFR^+ cells; format: cell-based, human
Experimental: (§2) Images were visualized with a TCS SP5 confocal microscope (LEICA Microsystem, Wetzlar, Germany). Cells were prepared as described above for flow cytometry. Binding efficiency was determined by incubating cells with the labeled fusion proteins for 30 min on ice. Internalization was monitored by incubating cells with the labeled fusion proteins for 30 min at 37° C.

[2] = system: EGFR^− cell lines L540 and CHO-K1; experiment: Confocal microscopy binding and internalization, EGFR^− cells; format: cell-based, human; settings: 4° C. and 37° C.
Experimental: as §2

scFv-425-SNAP-Ce6
cell viability (CHO-K1): remained unaffected | levels of caspase-3 and caspase-7 (caspase-3 and caspase-7): increased | ROS synthesis (DCF 485/535-nm fluorescence) (A431 cells; after light activation): burst of ROS synthesis | ROS levels (DCF 485/535-nm fluorescence) (A431 cells; non-irradiated cells): only a small increase in ROS levels | membrane staining (confocal microscopy) ([1]; 0.5 μg, 30 min at 4° C.): strong, specific and homogeneous membrane staining | internalization (uptake into cells, confocal microscopy) ([1]; 30-min incubation at 37° C.): specifically and efficiently taken up | Ce6 fluorescence signal (confocal microscopy) [2]: no signal was detected
